The source of these data is ChEMBL document CHEMBL1151852, “Tetranortriterpenoids from the Leaves of Cipadessa cinerascens” (2009).

The structures appear in SMILES notation. Where only a bound is given, the exact number is not on record here.

The experiment has as its system P388. The experiment in a line: Cytotoxicity against mouse P388 cells after 72 hrs by MTT assay. Type of experiment: functional. To be noted: P388, 72 h, read-out: ED50 (the source's name). (Tetrazolium assays rely on reduction of a dye to a coloured formazan, in cell work by metabolically active cells.)

`C=C1[C@@H]2[C@H](OC(C)=O)C[C@@]3(C)[C@H](c4ccoc4)OC(=O)C[C@]13O[C@H]1[C@@H](OC(C)=O)[C@@H](OC(C)=O)C(C)(C)[C@H](CC(=O)OC)[C@@]21C` [CINERACIPADESIN E]: the EC50 is over 5 mg/L.

Take `C=C1[C@@H]2CC[C@@]3(C)[C@H](c4ccoc4)OC(=O)C[C@]13O[C@H]1[C@H](OC(C)=O)[C@H](OC(C)=O)C(C)(C)[C@H](CC(=O)OC)[C@@]21C`: the EC50 is over 5 mg/L.

Turning to `CC[C@@H](C)C(=O)O[C@@H]1[C@H]2C(=O)[C@@](C)([C@@H](CC(=O)OC)C1(C)C)[C@@]13O[C@@H]1C[C@@]1(C)[C@H](c4ccoc4)OC(=O)C[C@@H]1[C@]31O[C@H]21` [CINERACIPADESIN A], the EC50 was over 5 mg/L.

In the case of `C=C1[C@@H]2[C@H](OC(C)=O)C[C@@]3(C)[C@H](c4ccoc4)OC(=O)C[C@]13O[C@H]1C[C@@H](OC(C)=O)C(C)(C)[C@H](CC(=O)OC)[C@]12C` [CINERACIPADESIN D], the EC50 is over 5 mg/L.

For the molecule `C=C1[C@]2(OC(C)=O)C[C@@]3(C)[C@H](c4ccoc4)OC(=O)C[C@]13O[C@H]1[C@@H](OC(C)=O)[C@@H](OC(C)=O)C(C)(C)[C@H](CC(=O)OC)[C@@]1(C)C2=O` [CINERACIPADESIN F], the EC50 is over 5 mg/L.

Take `C=C1[C@@]23CC(=O)O[C@@H](c4ccoc4)[C@]2(C)C[C@@H](O)[C@]1(O)[C@@]1(C)[C@@H](O3)[C@@H](OC(C)=O)[C@@H](OC(C)=O)C(C)(C)[C@@H]1CC(=O)OC` [CINERACIPADESIN B]: the EC50 is over 5 mg/L.

For the molecule `C=C1[C@]2(O)C(=O)C[C@@]3(C)[C@H](c4ccoc4)OC(=O)C[C@]13O[C@H]1C[C@@H](OC(C)=O)C(C)(C)[C@H](CC(=O)OC)[C@]12C` [CINERACIPADESIN C], the EC50 was over 5 mg/L.
